Laboratory results as given in patent publication EP1180094B1, “FUSED POLYCYCLIC AMINO ACIDS AS PHARMACEUTICAL AGENTS” (WARNER-LAMBERT COMPANY, priority 1999, dated 2000).

Columns and labels:
[1] = system: carrageenan-induced hyperalgesia model; test: Carrageenin-induced hyperalgesia, rat paw pressure test (Randall-Selitto); type: in vivo; conditions: dosed orally at 30 mg/kg
Protocol: Nociceptive pressure thresholds were measured in the rat paw pressure test using an analgesimeter (Randall-Selitto method: Randall L.O. and Selitto J.J., "A method for measurement of analgesic activity on inflamed tissue," Arch. Int. Pharmacodyn., 1957;4:409-419). Male Sprague-Dawley rats (70-90 g) were trained on this apparatus before the test day. Pressure was gradually applied to the hind paw of each rat and nociceptive thresholds were determined as the pressure (g) required to elicit paw withdrawal. A cutoff point of 250 g was used to prevent any tissue damage to the paw. On the test day, two to three baseline measurements were taken before animals were administered 100 µL of 2% carrageenin by intraplantar injection into the right hind paw. […] Animals were dosed with either gabapentin ([…].), morphine (3 mg/kg, s.c.) or saline at 3.5 hours after carrageenin and nociceptive thresholds were examined at 4, 4.5, and 5 hours postcarrageenin.
(R)-2-Aza-spiro[4.5]decane-4-carboxylic acid hydrochloride was tested in the above carrageenan-induced hyperalgesia model. The compound was dosed orally at 30 mg/kg, and 1 hour postdose gave a percent of maximum possible effect (MPE) of 53%. At 2 hours postdose, it gave only 4.6% of MPE.

[2] = system: Carrageenan Induced Thermal Hyperalgesia Model (rat); test: Carrageenan induced thermal hyperalgesia model; type: in vivo

Compound | percent of maximum possible effect (MPE) ([1]; 1 hour postdose) | percent of maximum possible effect (MPE) ([1]; 2 hours postdose) | Carrageenan Induced Thermal Hyperalgesia Model (rat). %MPE* at time postdose @30 mg/Kg p.o. ([2]; 1h postdose) | Carrageenan Induced Thermal Hyperalgesia Model (rat). %MPE* at time postdose @30 mg/Kg p.o. ([2]; 2h postdose)
Cl.O=C(O)[C@H]1CNCC12CCCCC2 [(R)-2-Aza-spiro[4.5]decane-4-carboxylic acid hydrochloride] | 53% | 4.6% | – | –
NCC1(CC(=O)O)Cc2ccccc2C1 [(2-aminomethyl-indan-2-yl)-acetic acid] | – | – | 28.5 (1h) %MPE | 10 (2h) %MPE
